Some results are limits rather than exact numbers.

This assay concerns the target Recombinant human HSP90a (Homo sapiens, UniProt P07900). The assay can be described thus: radioligand filter binding test ([3H]17AAG competition) for HSP90 inhibition. The note with it: competition with [3H]17AAG 0.08 μM, HSP90 1.5 μg/assay, 22° C., 30 min. From the text: Test Method for the Measurement of HSP90 Inhibitors
The binding of geldanamycin or 17-allylamino-17-demethoxygeldanamycin (17AAG) to HSP90 and competitive inhibition thereof can be utilized in order to determine the inhibitory activity of the compounds according to the invention (Carreras et al. 2003, Chiosis et al. 2002).
In the specific case, a radioligand filter binding test is used. The radioligand used here is tritium-labelled 17-allylaminogeldanamycin, [3H]17AAG. This filter binding test allows a targeted search for inhibitors which interfere with the ATP binding site.
Recombinant human HSP90a (E. coli expressed, 95% purity);
[3H]17AAG (17-allylaminogeldanamycin, [allylamino-2,3-^3H. Specific activity: 1.11×10^12 Bq/mmol (Moravek, MT-1717);
HEPES filter buffer (50 mM HEPES, pH 7.0, 5 mM MgCl2, BSA 0.01%) Multiscreen FB (1 μm) filter plate (Millipore, MAFBNOB 50).
The 96-well microtitre filter plates are firstly irrigated and coated with 0.1% of polyethylenimine.
The test is carried out under the following conditions:
Reaction temperature 22° C.
Reaction time: 30 min., shaking at 800 rpm
50 mM HEPES HCl, pH 7.0, 5 mM MgCl2, 0.01% (w/v) of BSA
At the end of the reaction, the supernatant in the filter plate is removed by suction with the aid of a vacuum manifold (Multiscreen Separation System, Millipore), and the filter is washed twice.
The filter plates are then measured in a beta counter (Microbeta, Wallac) with scintillator (Microscint 20, Packard).
“% of control” is determined from the “counts per minutes” values, and the IC-50 value of a compound is calculated therefrom.
For `Nc1nc(C(=O)N2Cc3ccccc3C2)c2cc(-c3ccccc3O)ccc2n1` [Compound A335, [2-amino-6-(2-hydroxyphenyl)quinazolin-4-yl]-(1,3-dihydroisoindol-2-yl)methanone], the IC50 was in the range of 10 to 1000 nM.

As for `CCCN(C)C(=O)c1nc(N)nc2ccccc12` [Compound A10, 2-Amino-4-propylmethylcarbamoylquinazoline], the IC50 was > 10000 nM. Regarding `Nc1nc(C(=O)Nc2cccc3c2CCCC3)c2ccccc2n1` [Compound A50], the IC50 lay within 1000 to 10000 nM. Take `CN(C)CCNCc1ccccc1-c1ccc2nc(N)nc(C(=O)N3Cc4ccccc4C3)c2c1` [Compound A973]: the IC50 is 10 to 1000 nM. With `NC(=O)c1ccccc1-c1ccc2nc(N)nc(C(=O)N3Cc4ccccc4C3)c2c1` [Compound A310] the figure was 10 to 1000 nM.

Turning to `N#CCc1ccccc1-c1ccc2nc(N)nc(C(=O)N3Cc4ccccc4C3)c2c1` [Compound A344a], the IC50 fell in the range of 10 to 1000 nM. For the compound `Nc1nc(C(=O)Nc2cccc3cccnc23)c2ccccc2n1` [Compound A48], the IC50 is 1000 to 10000 nM. To `CCNCc1ccccc1-c1ccc2nc(N)nc(C(=O)N3Cc4ccccc4C3)c2c1` [Compound A978] belongs 10 to 1000 nM; to `CCN(C)C(=O)c1nc(N)nc2ccccc12` [Compound A6, 2-Amino-4-ethylmethylcarbamoylquinazoline], > 10000 nM; to `CCN(CC)C(=O)c1nc(N)nc2ccc(-c3ccccc3)cc12` [Compound A138, 2-Amino-6-phenyl-4-diethylcarbamoylquinazoline], 1000 to 10000 nM. Consider `C#CCCNC(=O)c1nc(N)nc2ccccc12` [Compound A19, 2-Amino-4-propargylmethylcarbamoylquinazoline], for which the IC50 was > 10000 nM. With `CCc1ccc2nc(N)nc(C(=O)N3Cc4ccc(O)cc4C3)c2c1` [Compound A95, 2-Amino-6-ethyl-4-(5-hydroxy-1,3-dihydroisoindol-2-ylcarbonyl)quinazoline] the figure was 1000 to 10000 nM; with `Nc1nc(C(=O)N2Cc3ccccc3C2)c2cc(-c3ccncc3)ccc2n1` [Compound A922, 2-Amino-6-(pyridin-4-yl)-4-(1,3-dihydroisoindol-2-ylcarbonyl)quinazoline], 10 to 1000 nM; with `CN(C)CCCNc1ccc2nc(N)nc(C(=O)N3Cc4ccccc4C3)c2c1` [Compound A940], > 10000 nM. With `CN1CCN(S(=O)(=O)c2ccccc2-c2ccc3nc(N)nc(C(=O)N4Cc5ccccc5C4)c3c2)CC1` [Compound A980, {2-amino-6-[2-(4-methylpiperazine-1-sulfonyl)phenyl]quinazolin-4-yl}-(1,3-dihydroisoindol-2-yl)methanone] the figure was 10 to 1000 nM; with `CNCc1ccccc1-c1ccc2nc(N)nc(C(=O)N3Cc4ccccc4C3)c2c1` [Compound A933], 10 to 1000 nM. To `CN(C)C(=O)c1nc(N)nc2ccccc12` [Compound A5, 2-Amino-4-dimethylcarbamoylquinazoline] belongs > 10000 nM.

Consider `CN1CCN(c2ccc3nc(N)nc(C(=O)N4Cc5ccccc5C4)c3c2)CC1` [Compound A941], for which the IC50 fell in the range of 1000 to 10000 nM.

As to `Nc1nc(C(=O)N2Cc3ccccc3C2)c2cc(-c3ccccc3OC(F)(F)F)ccc2n1` [Compound A240], the IC50 was in the range of 10 to 1000 nM. With `Nc1nc(C(=O)N2Cc3ccccc3C2)c2cc(-c3ccccc3C(F)(F)F)ccc2n1` [Compound A262] the figure was 10 to 1000 nM; with `Nc1nc(C(=O)N2Cc3ccccc3C2)c2cc(-c3ccccc3C(=O)N3CCNCC3)ccc2n1` [Compound A1007], 10 to 1000 nM; with `N#CCc1cccc(-c2ccc3nc(N)nc(C(=O)N4Cc5ccccc5C4)c3c2)c1` [Compound A919, 2-Amino-6-(3-cyanomethylphenyl)-4-(1,3-dihydroisoindol-2-ylcarbonyl)quinazoline], 10 to 1000 nM. For `CCN(CC)C(=O)c1cccc(-c2ccc3nc(N)nc(C(=O)N4Cc5ccccc5C4)c3c2)c1` [Compound A931], the IC50 fell in the range of 10 to 1000 nM.

With `CCc1ccc2nc(N)nc(C(=O)N(CC)CC)c2c1` [Compound A98, 2-Amino-6-ethyl-4-diethylcarbamoylquinazoline], the IC50 was in the range of 1000 to 10000 nM. To `CC(C)c1ccc2nc(N)nc(C(=O)N3Cc4ccccc4C3)c2c1` [Compound A118, 2-Amino-6-isopropyl-4-(1,3-dihydroisoindol-2-ylcarbonyl)quinazoline] belongs 1000 to 10000 nM; to `Nc1nc(C(=O)N2Cc3ccccc3C2)c2cc(-c3cc4ccccc4o3)ccc2n1` [Compound A921, 2-Amino-6-(benzofuran-2-yl)-4-(1,3-dihydroisoindol-2-ylcarbonyl)quinazoline], 1000 to 10000 nM. With `CN(C)CCN(C)S(=O)(=O)c1ccccc1-c1ccc2nc(N)nc(C(=O)N3Cc4ccccc4C3)c2c1` [Compound A982] the figure was 10 to 1000 nM; with “2-Amino-4-propylethylcarbamoylquinazoline [Compound A11]”, 1000 to 10000 nM. With `NCc1ccccc1-c1ccc2nc(N)nc(C(=O)N3Cc4ccccc4C3)c2c1` [Compound A936] the figure was 1000 to 10000 nM; with `CCc1ccccc1-c1ccc2nc(N)nc(C(=O)N3Cc4ccccc4C3)c2c1` [Compound A924, 2-Amino-6-(2-ethylphenyl)-4-(1,3-dihydroisoindol-2-ylcarbonyl)quinazoline], 10 to 1000 nM; with `Nc1nc(C(=O)N2Cc3ccccc3C2)c2cc(-c3ccccc3S(=O)(=O)N3CCNCC3)ccc2n1` [Compound A981], 10 to 1000 nM. Consider `CN1CCN(Cc2ccccc2-c2ccc3nc(N)nc(C(=O)N4Cc5ccccc5C4)c3c2)CC1` [Compound A970, {2-amino-6-[2-(4-methylpiperazin-1-ylmethyl)phenyl]quinazolin-4-yl}-(1,3-dihydroisoindol-2-yl)methanone], for which the IC50 lay in the range of 10 to 1000 nM. With `CN(Cc1ccc(F)cc1)C(=O)c1nc(N)nc2ccccc12` [Compound A73, 2-Amino-4-[(4-fluorobenzyl)methylcarbamoyl]quinazoline] the figure was > 10000 nM. As to `Nc1nc(C(=O)N2Cc3ccccc3C2)c2cc(-c3ccccc3CNC3CCC(O)CC3)ccc2n1` (stereo not shown) [Compound A977], the IC50 fell in the range of 1000 to 10000 nM. On to `Nc1nc(C(=O)N2Cc3ccccc3C2)c2cc(NC3CCC(O)CC3)ccc2n1` (stereo not shown) [Compound A951], for which the IC50 was 1000 to 10000 nM. As for `CC(C)N(C)C(=O)c1nc(N)nc2ccccc12` [Compound A8, 2-Amino-4-isopropylmethylcarbamoylquinazoline], the IC50 is > 10000 nM. With `Nc1nc(C(=O)N2Cc3ccccc3C2)c2cc(-c3ccccc3CN3CCNCC3)ccc2n1` [Compound A971] the figure was 10 to 1000 nM; with `CCNC(=O)c1ccc2nc(N)nc(C(=O)N(CC)CC)c2c1` [Compound A140, 2-Amino-6-ethylcarbamoyl-4-diethylcarbamoylquinazoline], > 10000 nM; with `CNC(=O)c1nc(N)nc2ccccc12` [Compound A1, 2-amino-4-methylcarbamoylquinazoline], > 10000 nM. To `Nc1nc(C(=O)N2Cc3ccccc3C2)c2cc(-c3ccccc3CN3CCOCC3)ccc2n1` [Compound A974] belongs 10 to 1000 nM; to `Nc1nc(C(=O)N2Cc3ccccc3C2)c2cc(NC3CCCCC3)ccc2n1` [Compound A949], 10 to 1000 nM. To `Nc1nc(C(=O)N2Cc3ccccc3C2)c2cc(Oc3ccccc3)ccc2n1` [Compound A946] belongs 10 to 1000 nM; to `Nc1nc(C(=O)N2Cc3ccccc3C2)c2cc(N3CCN(C(=O)OCc4ccccc4)CC3)ccc2n1` [Compound A939], 10 to 1000 nM. With `Nc1nc(C(=O)N2Cc3ccccc3C2)c2cc(NCc3ccccc3)ccc2n1` [Compound A950], the IC50 was in the range of 1000 to 10000 nM.

Regarding `COc1ccc(Cl)cc1CN(C)C(=O)c1nc(N)nc2ccccc12` [Compound A72, 2-Amino-4-[(3-chloro-6-methoxybenzyl)methylcarbamoyl]quinazoline], the IC50 is > 10000 nM. To `CCN(CC)C(=O)c1nc(N)nc2ccccc12` [Compound A7, 2-Amino-4-diethylcarbamoylquinazoline] belongs > 10000 nM; to `Nc1nc(C(=O)N2Cc3ccccc3C2)c2cc(-c3ccccc3CNCCO)ccc2n1` [Compound A972], 10 to 1000 nM.

For the compound `CCc1ccc2nc(N)nc(C(=O)N3Cc4ccc(Br)cc4C3)c2c1` [Compound A96, 2-Amino-6-ethyl-4-(5-bromo-1,3-dihydroisoindol-2-ylcarbonyl)quinazoline], the half-maximal inhibitory concentration (IC50) was 10 to 1000 nM. With `Nc1nc(C(=O)N2Cc3ccccc3C2)c2cc(-c3ccc(O)cc3CO)ccc2n1` [Compound A1006] the figure was 10 to 1000 nM. With `Nc1nc(C(=O)N2Cc3ccccc3C2)c2cc(Br)ccc2n1` [Compound A125, 2-Amino-6-bromo-4-(1,3-dihydroisoindol-2-ylcarbonyl)quinazoline] the figure was 1000 to 10000 nM. With `CN(C)Cc1ccccc1-c1ccc2nc(N)nc(C(=O)N3Cc4ccccc4C3)c2c1` [Compound A975] the figure was 10 to 1000 nM.

Consider `N#Cc1ccccc1-c1ccc2nc(N)nc(C(=O)N3Cc4ccccc4C3)c2c1` [Compound A328], for which the IC50 was 10 to 1000 nM.

One may read the IC50 as the concentration that inhibits the measured activity by half.

(Values after patent US8501754B2, “Quinazolinamide derivatives” (MERCK PATENT GmbH, priority 2007, dated 2013).)
